This passage reports % of inhibition, % of control and % of residual activity results from ChEMBL document CHEMBL5465560, “Selectivity Literature for EUbOPEN Chemogenomic Library” (2024).

For assay [1], the target named is MAP kinase-activated protein kinase 3 (Homo sapiens) (UniProt Q16644). The assay can be described thus: Selectivity interaction (SelectScreen kinase panel (Invitrogen)) EUB0000133b MAPKAPK3. The conditions noted are these: at 1 µM.
In another assay the target is Ephrin type-A receptor 4 (Homo sapiens, UniProt P54764). The assay can be described thus: Selectivity interaction (SelectScreen kinase panel (Invitrogen)) EUB0000133b EPHA4. The conditions noted are these: at 1 µM.
Assay [2] has as its target NT-3 growth factor receptor (Homo sapiens, UniProt Q16288). The assay can be described thus: Selectivity interaction (SelectScreen kinase panel (Invitrogen)) EUB0000133b NTRK3. The conditions noted are these: at 1 µM.
The target in assay [3] is Fibroblast growth factor receptor 2 (Homo sapiens) (UniProt P21802). The experiment in a line: Selectivity interaction (SelectScreen kinase panel (Invitrogen)) EUB0000133b FGFR2. Conditions: at 1 µM.
Sequence of Fibroblast growth factor receptor 2 (Homo sapiens) (P21802 22-821 limits assumed): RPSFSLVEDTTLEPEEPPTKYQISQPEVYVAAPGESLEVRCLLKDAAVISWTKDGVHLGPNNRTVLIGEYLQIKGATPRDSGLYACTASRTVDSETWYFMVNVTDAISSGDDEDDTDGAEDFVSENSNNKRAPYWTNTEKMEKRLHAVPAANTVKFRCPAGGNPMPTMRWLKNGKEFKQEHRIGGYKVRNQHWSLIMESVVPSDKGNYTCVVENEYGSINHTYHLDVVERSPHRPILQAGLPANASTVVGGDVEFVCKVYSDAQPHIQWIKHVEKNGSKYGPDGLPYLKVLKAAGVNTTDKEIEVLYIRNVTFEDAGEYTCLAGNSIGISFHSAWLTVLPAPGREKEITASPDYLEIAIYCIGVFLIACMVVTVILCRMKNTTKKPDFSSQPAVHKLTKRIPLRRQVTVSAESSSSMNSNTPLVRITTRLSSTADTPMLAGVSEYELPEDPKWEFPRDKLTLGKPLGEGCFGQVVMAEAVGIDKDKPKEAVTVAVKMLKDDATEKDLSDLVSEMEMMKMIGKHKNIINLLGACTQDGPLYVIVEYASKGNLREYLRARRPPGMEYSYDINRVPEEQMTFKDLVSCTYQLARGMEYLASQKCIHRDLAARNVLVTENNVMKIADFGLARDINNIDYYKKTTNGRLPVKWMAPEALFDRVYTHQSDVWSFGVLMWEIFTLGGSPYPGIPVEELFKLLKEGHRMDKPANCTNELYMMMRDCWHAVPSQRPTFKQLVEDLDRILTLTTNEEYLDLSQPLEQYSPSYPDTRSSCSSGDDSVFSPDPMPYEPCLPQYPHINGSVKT
Assay [4] addresses Tyrosine-protein kinase Blk (Homo sapiens) (UniProt P51451). The experiment in a line: Selectivity interaction (SelectScreen kinase panel (Invitrogen)) EUB0000133b BLK. Conditions: at 1 µM.
For assay [5], the target named is Tyrosine-protein kinase Fgr (Homo sapiens) (UniProt P09769). The experiment in a line: Selectivity interaction (SelectScreen kinase panel (Invitrogen)) EUB0000133b FGR. Conditions: at 1 µM.
Assay [6] concerns the target Calcium/calmodulin-dependent protein kinase type II subunit alpha (Homo sapiens, UniProt Q9UQM7). The assay can be described thus: Selectivity interaction (SelectScreen kinase panel (Invitrogen)) EUB0000133b CAMK2A. The conditions noted are these: at 1 µM.
Assay [7] deals with Ephrin type-A receptor 2 (Homo sapiens) (UniProt P29317). The assay can be described thus: Selectivity interaction (SelectScreen kinase panel (Invitrogen)) EUB0000133b EPHA2. Conditions: at 1 µM.
For assay [8], the target named is RAF proto-oncogene serine/threonine-protein kinase (Homo sapiens) (UniProt P04049). The conditions noted are these: at 1 µM.
Sequence of RAF proto-oncogene serine/threonine-protein kinase (Homo sapiens) (P04049 whole entry): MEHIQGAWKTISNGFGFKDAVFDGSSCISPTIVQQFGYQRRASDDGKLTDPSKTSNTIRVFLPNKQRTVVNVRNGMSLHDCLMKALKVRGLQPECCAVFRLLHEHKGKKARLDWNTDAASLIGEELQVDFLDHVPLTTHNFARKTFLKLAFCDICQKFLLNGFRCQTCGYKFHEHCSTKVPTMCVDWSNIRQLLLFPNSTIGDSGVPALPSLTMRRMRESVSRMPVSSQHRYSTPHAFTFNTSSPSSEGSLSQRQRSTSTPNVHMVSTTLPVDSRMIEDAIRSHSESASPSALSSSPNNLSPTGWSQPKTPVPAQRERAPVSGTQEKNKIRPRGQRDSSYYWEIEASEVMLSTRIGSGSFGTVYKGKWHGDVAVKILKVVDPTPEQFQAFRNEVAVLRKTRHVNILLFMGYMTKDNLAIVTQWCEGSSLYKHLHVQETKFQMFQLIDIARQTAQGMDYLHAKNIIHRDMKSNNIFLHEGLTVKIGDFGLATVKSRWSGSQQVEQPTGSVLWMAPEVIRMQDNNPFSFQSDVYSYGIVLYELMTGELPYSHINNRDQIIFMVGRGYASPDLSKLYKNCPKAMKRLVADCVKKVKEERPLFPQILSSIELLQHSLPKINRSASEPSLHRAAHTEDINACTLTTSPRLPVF
In assay [9] the target is Vascular endothelial growth factor receptor 2 (Homo sapiens, UniProt P35968). The conditions noted are these: at 1 µM.
Assay [10] deals with Platelet-derived growth factor receptor alpha (Homo sapiens, UniProt P16234). Conditions: at 1 µM.
For assay [11], the target named is Vascular endothelial growth factor receptor 1 (Homo sapiens) (UniProt P17948). The conditions noted are these: at 1 µM.
Assay [12] concerns the target Mitogen-activated protein kinase kinase kinase kinase 4 (Homo sapiens, UniProt O95819). Conditions: at 1 µM.
Assay [13] relates to Platelet-derived growth factor receptor alpha (Homo sapiens), P16234 [V561D]. The conditions noted are these: at 1 µM.
Another assay deals with Misshapen-like kinase 1 (Homo sapiens, UniProt Q8N4C8). The conditions noted are these: at 1 µM.
The target in assay [14] is Receptor-interacting serine/threonine-protein kinase 2 (Homo sapiens, UniProt O43353). Conditions: at 1 µM.
Assay [15] addresses Vascular endothelial growth factor receptor 3 (Homo sapiens, UniProt P35916). The conditions noted are these: at 1 µM.
In assay [16] the target is Receptor-type tyrosine-protein kinase FLT3 (Homo sapiens) (UniProt P36888). The experiment in a line: Selectivity interaction (Ambit kinase binding assay panel) EUB0000608a FLT3. The conditions noted are these: at 10 µM.
Assay [17] concerns the target T1, Cyclin-G-associated kinase (Homo sapiens) (UniProt O14976).
T1 sequence (whole entry): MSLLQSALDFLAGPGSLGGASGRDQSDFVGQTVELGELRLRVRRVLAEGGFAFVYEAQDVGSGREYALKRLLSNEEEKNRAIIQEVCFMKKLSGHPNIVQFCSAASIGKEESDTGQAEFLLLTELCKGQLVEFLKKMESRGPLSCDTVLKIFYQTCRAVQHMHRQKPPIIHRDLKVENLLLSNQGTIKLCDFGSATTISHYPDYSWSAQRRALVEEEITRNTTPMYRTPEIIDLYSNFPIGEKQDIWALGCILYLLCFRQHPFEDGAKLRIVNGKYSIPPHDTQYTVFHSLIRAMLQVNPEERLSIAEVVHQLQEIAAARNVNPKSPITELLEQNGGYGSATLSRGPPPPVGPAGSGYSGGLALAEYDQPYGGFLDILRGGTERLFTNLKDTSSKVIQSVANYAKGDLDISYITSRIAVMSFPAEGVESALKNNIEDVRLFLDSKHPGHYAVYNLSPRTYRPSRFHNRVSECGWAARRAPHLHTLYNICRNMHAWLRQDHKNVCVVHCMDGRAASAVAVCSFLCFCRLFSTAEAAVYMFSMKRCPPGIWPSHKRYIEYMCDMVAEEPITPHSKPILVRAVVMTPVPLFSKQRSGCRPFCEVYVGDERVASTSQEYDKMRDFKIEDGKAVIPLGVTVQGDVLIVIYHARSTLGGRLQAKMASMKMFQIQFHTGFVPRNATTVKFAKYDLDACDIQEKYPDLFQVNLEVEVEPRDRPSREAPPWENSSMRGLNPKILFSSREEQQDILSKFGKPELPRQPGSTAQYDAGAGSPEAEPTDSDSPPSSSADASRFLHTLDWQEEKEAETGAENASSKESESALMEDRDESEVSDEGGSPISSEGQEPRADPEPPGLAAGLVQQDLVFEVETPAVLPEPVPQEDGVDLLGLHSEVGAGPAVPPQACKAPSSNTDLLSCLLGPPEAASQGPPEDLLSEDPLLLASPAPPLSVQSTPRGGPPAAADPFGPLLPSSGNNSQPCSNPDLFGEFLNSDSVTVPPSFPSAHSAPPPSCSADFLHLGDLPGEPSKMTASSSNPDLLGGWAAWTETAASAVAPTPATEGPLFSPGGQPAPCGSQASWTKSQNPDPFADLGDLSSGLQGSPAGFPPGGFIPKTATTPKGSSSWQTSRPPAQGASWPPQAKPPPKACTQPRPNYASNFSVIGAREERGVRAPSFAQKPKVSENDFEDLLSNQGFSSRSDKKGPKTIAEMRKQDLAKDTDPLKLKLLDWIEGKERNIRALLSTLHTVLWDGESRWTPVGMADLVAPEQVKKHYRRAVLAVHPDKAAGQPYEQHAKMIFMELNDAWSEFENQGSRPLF
The experiment in a line: Selectivity interaction (Ambit kinase binding assay panel) EUB0000608a GAK. The conditions noted are these: at 10 µM.

Another assay addresses Focal adhesion kinase 1 (Homo sapiens, UniProt Q05397). The assay can be described thus: Selectivity interaction (Ambit kinase binding assay panel) EUB0000608a PTK2. Conditions: at 10 µM.
Assay [18] deals with T2, Dual specificity protein kinase TTK (Homo sapiens) (UniProt P33981).
T2 sequence (whole entry): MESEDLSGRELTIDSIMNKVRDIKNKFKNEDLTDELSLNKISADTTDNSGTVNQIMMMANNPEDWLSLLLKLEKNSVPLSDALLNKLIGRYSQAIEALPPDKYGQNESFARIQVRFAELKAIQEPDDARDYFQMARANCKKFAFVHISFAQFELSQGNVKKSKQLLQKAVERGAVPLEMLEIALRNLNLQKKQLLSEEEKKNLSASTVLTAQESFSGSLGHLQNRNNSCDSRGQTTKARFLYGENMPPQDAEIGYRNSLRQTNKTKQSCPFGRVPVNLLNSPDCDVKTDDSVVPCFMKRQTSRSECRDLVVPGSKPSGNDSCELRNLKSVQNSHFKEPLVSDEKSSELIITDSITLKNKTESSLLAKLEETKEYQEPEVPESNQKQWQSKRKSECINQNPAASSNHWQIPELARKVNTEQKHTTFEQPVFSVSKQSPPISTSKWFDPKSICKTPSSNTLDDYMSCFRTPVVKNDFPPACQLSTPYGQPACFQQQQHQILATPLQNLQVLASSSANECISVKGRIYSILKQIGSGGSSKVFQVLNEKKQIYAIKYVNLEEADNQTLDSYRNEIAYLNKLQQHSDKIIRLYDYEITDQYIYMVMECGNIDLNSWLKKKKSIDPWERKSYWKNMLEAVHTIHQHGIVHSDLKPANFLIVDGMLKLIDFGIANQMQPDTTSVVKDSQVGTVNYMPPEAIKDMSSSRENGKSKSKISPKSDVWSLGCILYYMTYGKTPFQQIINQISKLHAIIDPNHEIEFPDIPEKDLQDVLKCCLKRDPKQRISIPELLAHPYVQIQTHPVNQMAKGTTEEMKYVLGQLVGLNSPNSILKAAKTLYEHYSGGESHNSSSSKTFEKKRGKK
The experiment in a line: Selectivity interaction (Ambit kinase binding assay panel) EUB0000608a TTK. Conditions: at 10 µM.

For assay [19], the target named is Serine/threonine-protein kinase PLK3 (Homo sapiens, UniProt Q9H4B4). The experiment in a line: Selectivity interaction (Ambit kinase binding assay panel) EUB0000608a PLK3. The conditions noted are these: at 10 µM.
Sequence of Serine/threonine-protein kinase PLK3 (Q9H4B4 whole entry, looked up): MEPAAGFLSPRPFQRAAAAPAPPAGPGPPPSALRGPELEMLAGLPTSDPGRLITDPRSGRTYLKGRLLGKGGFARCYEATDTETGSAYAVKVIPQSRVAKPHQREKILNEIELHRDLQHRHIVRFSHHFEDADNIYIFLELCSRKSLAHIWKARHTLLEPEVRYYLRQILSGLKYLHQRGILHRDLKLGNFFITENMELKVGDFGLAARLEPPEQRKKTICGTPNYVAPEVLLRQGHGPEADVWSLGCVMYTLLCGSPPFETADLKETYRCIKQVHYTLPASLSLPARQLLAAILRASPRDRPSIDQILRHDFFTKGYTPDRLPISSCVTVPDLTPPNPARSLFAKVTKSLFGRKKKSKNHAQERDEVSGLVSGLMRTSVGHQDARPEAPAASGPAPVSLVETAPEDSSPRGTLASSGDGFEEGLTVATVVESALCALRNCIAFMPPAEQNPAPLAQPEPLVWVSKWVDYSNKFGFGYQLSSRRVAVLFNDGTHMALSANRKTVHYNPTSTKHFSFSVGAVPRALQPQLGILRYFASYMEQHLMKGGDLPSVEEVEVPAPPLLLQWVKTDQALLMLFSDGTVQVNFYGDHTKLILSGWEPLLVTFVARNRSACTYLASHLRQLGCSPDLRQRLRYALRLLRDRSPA
Assay [20] addresses T3, Serine/threonine-protein kinase PLK4 (Homo sapiens) (UniProt O00444).
T3 sequence (whole entry): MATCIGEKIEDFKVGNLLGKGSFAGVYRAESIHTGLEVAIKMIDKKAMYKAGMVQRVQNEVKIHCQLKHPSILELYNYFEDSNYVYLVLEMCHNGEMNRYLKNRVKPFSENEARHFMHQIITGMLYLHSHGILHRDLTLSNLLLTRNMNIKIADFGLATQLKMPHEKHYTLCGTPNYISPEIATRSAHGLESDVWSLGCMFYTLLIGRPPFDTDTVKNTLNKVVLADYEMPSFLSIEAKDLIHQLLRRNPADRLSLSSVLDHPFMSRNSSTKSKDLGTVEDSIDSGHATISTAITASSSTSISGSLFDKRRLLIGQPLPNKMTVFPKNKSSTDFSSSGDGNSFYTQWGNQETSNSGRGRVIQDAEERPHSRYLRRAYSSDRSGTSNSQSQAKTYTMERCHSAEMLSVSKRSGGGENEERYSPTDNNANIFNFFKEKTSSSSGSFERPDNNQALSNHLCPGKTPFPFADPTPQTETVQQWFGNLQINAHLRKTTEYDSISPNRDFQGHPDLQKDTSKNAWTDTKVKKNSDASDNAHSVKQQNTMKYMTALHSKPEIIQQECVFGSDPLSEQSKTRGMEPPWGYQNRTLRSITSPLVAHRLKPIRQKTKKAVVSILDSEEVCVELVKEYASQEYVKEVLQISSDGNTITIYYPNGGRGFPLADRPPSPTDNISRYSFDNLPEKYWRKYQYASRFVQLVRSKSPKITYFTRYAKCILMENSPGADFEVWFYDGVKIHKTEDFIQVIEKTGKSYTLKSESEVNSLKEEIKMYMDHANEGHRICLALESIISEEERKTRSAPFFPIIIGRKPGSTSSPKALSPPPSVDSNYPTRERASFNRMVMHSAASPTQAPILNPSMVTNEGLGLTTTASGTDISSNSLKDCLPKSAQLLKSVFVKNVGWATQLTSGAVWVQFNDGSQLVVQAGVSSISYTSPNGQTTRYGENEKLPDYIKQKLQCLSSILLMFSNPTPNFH
The assay can be described thus: Selectivity interaction (Ambit kinase binding assay panel) EUB0000608a PLK4. The conditions noted are these: at 10 µM.

Sequence of Mitogen-activated protein kinase kinase kinase kinase 4 (O95819 2-1239 limits assumed): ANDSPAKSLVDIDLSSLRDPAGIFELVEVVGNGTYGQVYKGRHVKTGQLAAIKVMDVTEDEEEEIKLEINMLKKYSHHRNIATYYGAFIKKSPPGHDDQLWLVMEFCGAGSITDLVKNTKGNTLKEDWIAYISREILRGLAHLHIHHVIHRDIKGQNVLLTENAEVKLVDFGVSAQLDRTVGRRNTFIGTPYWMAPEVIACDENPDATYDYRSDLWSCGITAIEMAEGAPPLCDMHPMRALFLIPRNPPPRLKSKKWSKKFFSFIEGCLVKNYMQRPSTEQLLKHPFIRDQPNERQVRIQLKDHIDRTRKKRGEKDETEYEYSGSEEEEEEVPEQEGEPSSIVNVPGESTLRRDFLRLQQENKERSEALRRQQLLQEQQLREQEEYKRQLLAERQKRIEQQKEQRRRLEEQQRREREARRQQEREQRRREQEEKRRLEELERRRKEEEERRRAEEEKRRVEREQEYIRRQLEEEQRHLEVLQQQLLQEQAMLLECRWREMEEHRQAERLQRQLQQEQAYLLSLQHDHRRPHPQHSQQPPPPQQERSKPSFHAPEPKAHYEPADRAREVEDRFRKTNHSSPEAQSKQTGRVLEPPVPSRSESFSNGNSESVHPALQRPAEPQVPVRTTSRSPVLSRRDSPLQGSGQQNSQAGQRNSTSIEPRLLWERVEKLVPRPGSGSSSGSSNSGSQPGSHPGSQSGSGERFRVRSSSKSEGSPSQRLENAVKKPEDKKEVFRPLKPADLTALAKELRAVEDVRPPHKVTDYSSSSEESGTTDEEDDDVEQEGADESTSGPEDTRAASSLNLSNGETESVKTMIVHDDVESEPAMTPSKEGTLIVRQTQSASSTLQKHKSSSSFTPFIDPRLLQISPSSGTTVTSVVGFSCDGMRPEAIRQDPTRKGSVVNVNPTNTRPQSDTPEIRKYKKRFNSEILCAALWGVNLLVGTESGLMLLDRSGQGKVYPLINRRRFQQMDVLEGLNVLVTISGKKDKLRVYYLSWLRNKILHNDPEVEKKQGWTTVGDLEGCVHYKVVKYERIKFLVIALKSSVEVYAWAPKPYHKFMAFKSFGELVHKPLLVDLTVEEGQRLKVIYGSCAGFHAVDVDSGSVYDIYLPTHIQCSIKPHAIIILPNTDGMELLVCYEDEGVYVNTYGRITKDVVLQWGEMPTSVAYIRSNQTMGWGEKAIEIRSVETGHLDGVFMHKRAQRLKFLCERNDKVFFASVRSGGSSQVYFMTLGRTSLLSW
Sequence of Vascular endothelial growth factor receptor 3 (P35916 whole entry): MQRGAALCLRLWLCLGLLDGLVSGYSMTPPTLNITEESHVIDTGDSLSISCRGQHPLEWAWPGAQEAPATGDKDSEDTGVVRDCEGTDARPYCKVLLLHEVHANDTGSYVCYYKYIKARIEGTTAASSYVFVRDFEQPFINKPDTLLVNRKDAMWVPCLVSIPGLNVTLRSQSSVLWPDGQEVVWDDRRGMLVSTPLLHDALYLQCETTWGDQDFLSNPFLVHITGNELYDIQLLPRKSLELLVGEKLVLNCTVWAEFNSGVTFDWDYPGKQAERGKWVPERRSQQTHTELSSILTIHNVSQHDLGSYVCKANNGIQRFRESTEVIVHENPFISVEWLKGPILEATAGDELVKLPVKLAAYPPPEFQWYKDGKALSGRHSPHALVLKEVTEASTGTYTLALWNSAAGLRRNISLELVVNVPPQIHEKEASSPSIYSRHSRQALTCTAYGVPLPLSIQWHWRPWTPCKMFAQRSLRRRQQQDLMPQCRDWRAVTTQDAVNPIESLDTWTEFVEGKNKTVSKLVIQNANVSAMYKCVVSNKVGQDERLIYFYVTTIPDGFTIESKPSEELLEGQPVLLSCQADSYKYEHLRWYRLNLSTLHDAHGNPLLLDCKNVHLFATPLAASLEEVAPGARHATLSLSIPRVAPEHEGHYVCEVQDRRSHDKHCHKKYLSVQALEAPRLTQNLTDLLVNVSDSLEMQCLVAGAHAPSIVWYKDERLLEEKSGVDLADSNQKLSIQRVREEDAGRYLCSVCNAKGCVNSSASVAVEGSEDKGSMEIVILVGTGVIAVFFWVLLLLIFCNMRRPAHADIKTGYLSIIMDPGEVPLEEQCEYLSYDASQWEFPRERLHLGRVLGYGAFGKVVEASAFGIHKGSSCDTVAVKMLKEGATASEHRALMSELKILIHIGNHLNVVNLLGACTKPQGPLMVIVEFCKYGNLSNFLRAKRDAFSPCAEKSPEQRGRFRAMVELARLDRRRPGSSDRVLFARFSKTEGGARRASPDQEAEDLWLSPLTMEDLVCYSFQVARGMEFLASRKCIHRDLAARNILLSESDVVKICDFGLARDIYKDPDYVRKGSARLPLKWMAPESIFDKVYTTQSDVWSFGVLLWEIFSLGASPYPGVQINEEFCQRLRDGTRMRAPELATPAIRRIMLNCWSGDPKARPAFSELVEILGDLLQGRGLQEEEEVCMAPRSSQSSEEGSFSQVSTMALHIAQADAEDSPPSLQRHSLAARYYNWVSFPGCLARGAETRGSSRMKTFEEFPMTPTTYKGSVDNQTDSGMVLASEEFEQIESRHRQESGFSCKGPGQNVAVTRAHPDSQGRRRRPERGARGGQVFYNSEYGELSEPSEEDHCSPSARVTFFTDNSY
Sequence of MAP kinase-activated protein kinase 3 (Homo sapiens) (Q16644 whole entry, looked up): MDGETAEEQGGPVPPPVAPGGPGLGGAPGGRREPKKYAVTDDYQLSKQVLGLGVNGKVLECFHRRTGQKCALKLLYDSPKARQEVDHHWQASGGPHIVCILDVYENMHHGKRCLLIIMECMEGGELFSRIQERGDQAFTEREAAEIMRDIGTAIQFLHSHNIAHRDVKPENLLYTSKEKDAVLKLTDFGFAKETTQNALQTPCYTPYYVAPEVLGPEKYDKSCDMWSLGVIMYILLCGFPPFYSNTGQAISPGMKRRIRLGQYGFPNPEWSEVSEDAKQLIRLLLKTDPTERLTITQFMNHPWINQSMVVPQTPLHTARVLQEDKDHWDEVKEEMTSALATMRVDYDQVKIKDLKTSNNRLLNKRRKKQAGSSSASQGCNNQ

Turning to `COc1cc(Nc2ncc3c(n2)-c2ccc(Cl)cc2C(c2c(F)cccc2OC)=NC3)ccc1C(=O)O`, the % of inhibition came out at 91% in assay [1]; 94% on Ephrin type-A receptor 4; 91% in [2]; 90% in assay [3]; 92% in assay [4]; 97% in [5]. Besides, the % of inhibition in assay [6] turned out to be 95%; in assay [7], 100%.
In assay [8], `OCCn1cc(-c2ccc3c(c2)CCC3=NO)c(-c2ccncc2)n1` registered a % of control of 8%.
Regarding `Cc1cccc(-c2[nH]c(CNc3ccccc3F)nc2-c2ccc3ncnn3c2)n1`, the % of residual activity in assay [9] came to 11%; in [10], 47%; in assay [11], 38%; in assay [12], 41%; in [13], 43%; on Misshapen-like kinase 1 it was 21%. Moreover, the % of residual activity in [14] was found to be 7%; in assay [15] it was 28%.
With `CCOc1cc(N2CCC(O)CC2)ccc1Nc1ncc2c(n1)N(C1CCCC1)CCC(=O)N2C`, the % of control in [16] came out at 0%; in [17], 2%; at Focal adhesion kinase 1, 24%; in [18] it was 3.2%; in assay [19], 15%; in assay [20] it was 27%.
